{"source": "patent US20150080579A1", "about": "“Salts and Polymorphs of Dexrabeprazole” (Cipla Limited, priority 2010, published 2015)", "key": {"[1]": {"assay": "Storage stability: impurity profile"}, "[2]": {"assay": "Storage stability: water content by KF Autotitrator", "assay_type": "physicochemical", "protocol": "Water content was measured using about 0.2 g sample in methanol by KF Autotitrator."}, "[3]": {"conditions": "At 6 months, storage at 2° C. to 8° C."}, "[4]": {"conditions": "Initial, stability study at 2° C. to 8° C."}}}
{"compound": "COCCCOc1ccnc(C[S@@+]([O-])c2nc3ccccc3[nH]2)c1C", "note": "[dexrabeprazole sodium]", "values": [{"measurement": "Impurity A", "setting": "[1]; [3]", "result": 0.06, "unit": "%"}, {"measurement": "Impurity B", "setting": "[1]; [3]", "result": 1.25, "unit": "%"}, {"measurement": "Impurity C", "setting": "[1]; [3]", "result": 0.33, "unit": "%"}, {"measurement": "Impurity A", "setting": "[1]; [4]", "result": 0.02, "unit": "%"}, {"measurement": "Impurity B", "setting": "[1]; [4]", "result": 0.87, "unit": "%"}, {"measurement": "Impurity C", "setting": "[1]; [4]", "result": 0.22, "unit": "%"}, {"measurement": "Stability on storage (in words)", "setting": "[1]; on storage", "result": "not stable on storage"}, {"measurement": "Water absorption on storage (in words)", "setting": "[2]; 2° C. to 8° C. for 6 months", "result": "absorbed more water than dexrabeprazole magnesium"}, {"measurement": "Water content", "setting": "[2]; [3]", "result": 13.58, "unit": "% w/w"}, {"measurement": "Water content", "setting": "[2]; [4]", "result": 6.84, "unit": "% w/w"}]}
{"compound": "dexrabeprazole magnesium hydrate", "values": [{"measurement": "Rise in impurities on storage (in words)", "setting": "[1]; 2° C. to 8° C. for 6 months", "result": "does not show significant rise in impurities"}, {"measurement": "Impurity A", "setting": "[1]; [3]", "result": 0.02, "unit": "%"}, {"measurement": "Impurity B", "setting": "[1]; [3]", "result": 0.07, "unit": "%"}, {"measurement": "Impurity C", "setting": "[1]; [3]", "result": 0.09, "unit": "%"}, {"measurement": "Impurity A", "setting": "[1]; [4]", "result": 0.02, "unit": "%"}, {"measurement": "Impurity B", "setting": "[1]; [4]", "result": 0.07, "unit": "%"}, {"measurement": "Impurity C", "setting": "[1]; [4]", "result": 0.09, "unit": "%"}, {"measurement": "Water content", "setting": "[2]; [3]", "result": 10.46, "unit": "% w/w"}, {"measurement": "Water content", "setting": "[2]; [4]", "result": 10.27, "unit": "% w/w"}]}
